The text below walks through data of patent publication US20190321345A1, “GLUT4 Selective Inhibitors for Cancer Therapy” (Emory University, priority 2016, published 2019).

For orientation: EC50 means the concentration at which the effect is half-maximal. In general, IC50 refers to the midpoint of a concentration-inhibition curve.

Holding throughout (format): cell-based
The subject of experiment [1] is KMS11-GFP cells. The experiment in a line: Proliferation of KMS11-GFP myeloma cells (Cell Titre Glo). The following applies: for EC50: inhibition of proliferation, 72 hours, Cell Titre Glo; for impact on proliferation in KMS11-GFP cells compared with KMS11-GLUT1 cells: isogenic cell line pair. The method, then:
(§1) IC50 studies were performed using the CellTiter-Glo assay (Promega, Madison, Wis.). 20,000 cells in 100 ul complete RPMI 1640 medium were plated per well in 96-well plates, with a concentration range of individual compounds. After 72 h incubation, 100 uL Glo reagent were added to each well and luminescence was measured using a Biotek Synergy 4 multimode plate reader. Cell number was assessed by trypan blue standing and an automatic cell counter (Biorad). For cell viability assays 0.125×10^6 cells/mL were treated with the indicated concentration of drug, washed with 1×PBS and evaluated for viability by AnnexinV/DAPI staining and flow cytometry. Data analysis was per-formed with the FCS express version 3 (De Novo software, Los Angeles).
(§2) Compound were selected as a lead based on its low IC50, selectivity for inhibition of glucose transport through GLUT4, and inhibition of the KMS11-GFP cell line proliferation in contrast to the GLUT1 expressing isogenic line. Compounds were assessed in a high-throughput proliferation-based assay using an isogenic MM (KMS11) cell line pair overexpressing GLUT1 or GFP (as a control) (model of screen is depicted in FIG. 2A). […] Isogenic KMS11-GFP/GLUT1 overexpressing myeloma cell lines were treated with a dose range of the indicated test compound for 72 hours followed by evaluation of viable cell number by Cell Titre Glo assay

Experiment [2] concerns KMS11-GLUT1 cells. Briefly: Proliferation of KMS11-GLUT1 myeloma cells (Cell Titre Glo). Conditions: inhibition of proliferation, 72 hours. As for the experimental part: as §1, §2
For experiment [3], the target named is T1, GLUT1 (Homo sapiens, UniProt P11166).
T1 construct: expressed in transfected cells; host or cells: HEK293
T1 sequence (P11166 1-492): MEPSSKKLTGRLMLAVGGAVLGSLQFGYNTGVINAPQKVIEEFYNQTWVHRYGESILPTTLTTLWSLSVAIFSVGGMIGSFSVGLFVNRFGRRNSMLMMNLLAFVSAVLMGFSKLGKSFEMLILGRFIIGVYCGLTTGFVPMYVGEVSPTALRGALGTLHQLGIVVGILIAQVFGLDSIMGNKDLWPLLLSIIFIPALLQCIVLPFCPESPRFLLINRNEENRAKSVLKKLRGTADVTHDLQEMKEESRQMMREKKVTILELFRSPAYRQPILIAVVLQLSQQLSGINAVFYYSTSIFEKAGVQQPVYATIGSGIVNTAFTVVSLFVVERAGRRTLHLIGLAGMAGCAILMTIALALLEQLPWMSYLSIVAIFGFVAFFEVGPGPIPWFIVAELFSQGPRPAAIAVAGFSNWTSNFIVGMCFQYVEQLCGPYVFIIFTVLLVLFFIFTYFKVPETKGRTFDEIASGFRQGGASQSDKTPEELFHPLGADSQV
The experiment in a line: 2-DOG transport in HEK293 cells over-expressing GLUT1. The following applies: pre-treated 5 minutes, 2-DOG uptake 4 min; read-out: IC50 (inhibition of 2-DOG transport in HEK cells over-expressing GLUT isoforms) GLUT1. The method, then:
Tissue culture plates were pretreated with 25 μg/ml polyethyleneimine (Fluka, catalogue number P3143) in 150 mM NaCl for 20min to let cells adhere. JNN3 cells were subsequently plated and grown to 40-60% confluency in complete RPMI 1640 medium. HEK293 GLUT overexpressing cells were plated at 400,000 cells/ml overnight. Cells were then washed with glucose-free HEPES buffer twice and starved for 30 min. The uptake of 2-[^3H] deoxy-D-glucose (2-DOG) (50 μM) was measured in glucose-free HEPES buffer for 4-6 min at 37° C. Compound 20 (20 μM) was added 5-6 min prior to the addition of glucose depending on the specific assay. For the HEK293 GLUT overexpressing cells, non-specific uptake was measured in non-transfected HEK293 cells containing the shRNA GLUT1 knockdown and was subtracted from the experimental values. Data are plotted as percent uptake relative to unexposed HEK293 cultures. Data were normalized to fit by nonlinear regression analysis using GraphPad Prism software. […]
Glucose transport in HEK293 cells over-expressing GLUT1 or over-expressing GLUT4 or GLUT8 in cells lacking GLUT1 were used to evaluate inhibition of glucose transport. […] Non-specific uptake was measured in nontransfected HEK293 cells containing the shRNA GLUT1 knockdown and was subtracted from the experimental values.

Experiment [4] addresses T2, GLUT4 (Homo sapiens, UniProt P14672).
T2 construct: expressed in transfected cells; host or cells: HEK293 stably expressing GLUT1 shRNA
T2 sequence (P14672 1-509): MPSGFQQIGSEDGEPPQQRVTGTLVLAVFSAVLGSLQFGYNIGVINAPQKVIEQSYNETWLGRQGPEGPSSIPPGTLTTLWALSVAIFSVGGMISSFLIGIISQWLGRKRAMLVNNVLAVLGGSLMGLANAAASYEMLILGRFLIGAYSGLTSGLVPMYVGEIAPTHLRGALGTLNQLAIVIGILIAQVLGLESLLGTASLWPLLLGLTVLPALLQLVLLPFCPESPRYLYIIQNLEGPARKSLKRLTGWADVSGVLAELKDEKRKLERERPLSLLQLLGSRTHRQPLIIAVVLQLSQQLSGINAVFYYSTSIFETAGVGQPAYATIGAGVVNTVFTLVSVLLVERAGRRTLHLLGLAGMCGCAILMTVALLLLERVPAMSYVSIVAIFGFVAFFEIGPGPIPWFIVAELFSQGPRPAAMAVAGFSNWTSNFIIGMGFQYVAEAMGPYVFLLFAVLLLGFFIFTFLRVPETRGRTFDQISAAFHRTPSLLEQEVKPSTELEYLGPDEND
Briefly: 2-DOG transport in HEK293 cells over-expressing GLUT4. The following applies: pre-treated 5 minutes, 2-DOG uptake 4 min; cells lacking GLUT1; read-out: IC50 (inhibition of 2-DOG transport in HEK cells over-expressing GLUT isoforms) GLUT4. As for the experimental part:
(§3) Tissue culture plates were pretreated with 25 μg/ml polyethyleneimine (Fluka, catalogue number P3143) in 150 mM NaCl for 20min to let cells adhere. JNN3 cells were subsequently plated and grown to 40-60% confluency in complete RPMI 1640 medium. HEK293 GLUT overexpressing cells were plated at 400,000 cells/ml overnight. Cells were then washed with glucose-free HEPES buffer twice and starved for 30 min. The uptake of 2-[^3H] deoxy-D-glucose (2-DOG) (50 μM) was measured in glucose-free HEPES buffer for 4-6 min at 37° C. Compound 20 (20 μM) was added 5-6 min prior to the addition of glucose depending on the specific assay. For the HEK293 GLUT overexpressing cells, non-specific uptake was measured in non-transfected HEK293 cells containing the shRNA GLUT1 knockdown and was subtracted from the experimental values. Data are plotted as percent uptake relative to unexposed HEK293 cultures. Data were normalized to fit by nonlinear regression analysis using GraphPad Prism software.
(§4) Compound 20 was further screened for GLUT4 selectivity by evaluating inhibition of glucose transport in HEK 293 cells exogenously over-expressing human GLUTs-1, -2, -3, -4, or -8 that also stably express GLUT1 shRNA (except the GLUT1 overexpressing cell line) to knock down endogenous GLUT1.
(§5) Glucose transport in HEK293 cells over-expressing GLUT1 or over-expressing GLUT4 or GLUT8 in cells lacking GLUT1 were used to evaluate inhibition of glucose transport. Cells were pre-treated with compound for 5 minutes followed by evaluation of […] uptake for 4 min at […]. Non-specific uptake was measured in nontransfected HEK293 cells containing the shRNA GLUT1 knockdown and was subtracted from the experimental values.

Experiment [5] has as its target T3, GLUT8 (Homo sapiens, UniProt Q9NY64).
T3 construct: expressed in transfected cells; host or cells: HEK293 stably expressing GLUT1 shRNA
T3 sequence (Q9NY64 1-477): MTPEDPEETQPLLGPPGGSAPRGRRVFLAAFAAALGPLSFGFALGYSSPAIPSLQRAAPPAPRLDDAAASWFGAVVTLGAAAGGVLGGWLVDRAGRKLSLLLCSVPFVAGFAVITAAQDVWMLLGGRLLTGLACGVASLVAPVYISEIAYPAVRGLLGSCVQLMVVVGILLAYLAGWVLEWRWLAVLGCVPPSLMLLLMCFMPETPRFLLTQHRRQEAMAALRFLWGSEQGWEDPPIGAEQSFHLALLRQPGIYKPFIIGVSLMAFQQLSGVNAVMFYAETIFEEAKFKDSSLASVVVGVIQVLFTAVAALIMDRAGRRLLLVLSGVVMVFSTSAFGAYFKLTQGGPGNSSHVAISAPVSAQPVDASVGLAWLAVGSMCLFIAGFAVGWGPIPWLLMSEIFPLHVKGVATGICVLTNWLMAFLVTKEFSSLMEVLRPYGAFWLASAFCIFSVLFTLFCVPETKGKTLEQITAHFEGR
Briefly: 2-DOG transport in HEK293 cells over-expressing GLUT8. The following applies: pre-treated 5 minutes, 2-DOG uptake 4 min; cells lacking GLUT1; read-out: IC50 (inhibition of 2-DOG transport in HEK cells over-expressing GLUT isoforms) GLUT8. As for the experimental part:
as §3, §4, §5

On to `COc1ccc(C(=O)N(Cc2ccncc2)Cc2cccc(OCc3cccc(OC)c3)c2)cc1` [Compound 17, 4-Methoxy-N-(3-((3-methoxybenzyl)oxy)benzyl)-N-(pyridin-4-ylmethyl)benzamide], for which the EC50 in experiment [1] was 16.9 µM; in experiment [2], 28.5 µM. Also, the “impact on proliferation in KMS11-GFP cells compared with KMS11-GLUT1 cells” value (“impact … compared with KMS11-GLUT1 cells” for short) in experiment [1] is reported as “greater impact on proliferation in KMS11-GFP cells”. Moreover, the IC50 is more than 100 µM in experiment [3], 10.8 µM in experiment [4] and more than 100 µM in experiment [5].
Regarding `COc1ccc(C(=O)N(Cc2ccncc2)Cc2cccc(OCCc3ccccc3)c2)cc1` [Compound 10, 4-Methoxy-N-(3-phenethoxybenzyl)-N-(pyridin-4-ylmethyl)benzamide], the EC50 in experiment [1] was 16.9 µM; in experiment [2], 21 µM.
As for `COc1ccc(C(=O)N(Cc2ccncc2)Cc2cccc(OCCc3ccc(Br)cc3)c2)cc1` [Compound 13, N-(3-(4-bromophenethoxy)benzyl)-4-methoxy-N-(pyridin-4-ylmethyl)benzamide], the EC50 in experiment [1] was 8.4 µM; in experiment [2] it was 6.5 µM.
On to `Oc1cccc(CNCc2ccncc2)c1` [Compound 3, reference compound], for which the IC50 was more than 100 µM in experiment [3], 18.9 µM in experiment [4] and more than 100 µM in experiment [5].
For `COc1ccc(C(=O)N(Cc2ccncc2)Cc2cccc(OCCc3cccc(C(F)(F)F)c3)c2)cc1` [Compound 8, 4-Methoxy-N-(pyridin-4-ylmethyl)-N-(3-(3-(trifluoromethyl)phenethoxy)benzyl)benzamide], in experiment [1], the EC50 turned out to be 8.9 µM and the “impact … compared with KMS11-GLUT1 cells” value is recorded as “greater impact on proliferation in KMS11-GFP cells”. For the same compound, in experiment [2], the EC50 is 15.1 µM.
For `COc1ccc(C(=O)N(Cc2ccncc2)Cc2cccc(OCC3CCN(C(=O)OC(C)(C)C)CC3)c2)cc1` [Compound 11, Tert-butyl 4-((3-((4-methoxy-N-(pyridin-4-ylmethyl)benzamido)methyl)phenoxy)methyl)piperidine-1-carboxylate], the EC50 came to 5.1 µM in experiment [1] and 4.9 µM in experiment [2].
As for `COc1ccc(C(=O)N(Cc2ccncc2)Cc2cccc(OCC3CCCCC3)c2)cc1` [Compound 12, N-(3-(cyclohexylmethoxy)benzyl)-4-methoxy-N-(pyridin-4-ylmethyl)benzamide], the EC50 in experiment [1] is 19.7 µM; in experiment [2], 16 µM.
For `O=C(c1ccc(Cl)cc1)N(Cc1ccncc1)Cc1cccc(OCCc2ccc(F)cc2)c1` [Compound 19, 4-Chloro-N-(3-(4-fluorophenethoxy)benzyl)-N-(pyridin-4-ylmethyl)benzamide] the same measures were 13.1 µM and 15.6 µM.
Turning to `COc1ccc(C(=O)N(Cc2ccncc2)Cc2cccc(OCC(=O)c3ccc(Cl)cc3)c2)cc1` [Compound 18, N-(3-(2-(4-chlorophenyl)-2-oxoethoxy)benzyl)-4-methoxy-N-(pyridin-4-ylmethyl)benzamide], the EC50 in experiment [1] was determined as 18.5 µM; in experiment [2], 16.9 µM.
For `COc1ccc(C(=O)N(Cc2ccncc2)Cc2cccc(OCC(=O)c3cccc(Br)c3)c2)cc1` [Compound 21, N-(3-(2-(3-bromophenyl)-2-oxoethoxy)benzyl)-4-methoxy-N-(pyridin-4-ylmethyl)benzamide], the values for the EC50 in experiment [1] and in experiment [2] were 18.7 µM and 21.4 µM, respectively.
Turning to `COc1ccc(C(=O)N(Cc2ccncc2)Cc2cccc(OCc3ccc(C(F)(F)F)cc3)c2)cc1` [Compound 15], the EC50 was found to be 14.3 µM in experiment [1] and 16.8 µM in experiment [2].
`COc1ccc(C(=O)N(Cc2ccncc2)Cc2cccc(OCc3ccc([N+](=O)[O-])cc3)c2)cc1` [Compound 14, 4-Methoxy-N-(3-((4-nitrobenzyl)oxy)benzyl)-N-(pyridin-4-ylmethyl)benzamide]: the EC50 in experiment [1] worked out at 15.4 µM; in experiment [2] it was 11.7 µM.
On to `COc1ccc(C(=O)N(Cc2ccncc2)Cc2cccc(OCc3cccc([N+](=O)[O-])c3)c2)cc1` [Compound 22, 4-Methoxy-N-(3-((3-nitrobenzyl)oxy)benzyl)-N-(pyridin-4-ylmethyl)benzamide], for which the EC50 in experiment [1] is 19.6 µM; in experiment [2] it was 20.6 µM.
Regarding `COc1ccc(C(=O)N(Cc2ccncc2)Cc2cccc(OCCc3ccc(C)cc3)c2)cc1` [Compound 7, 4-Methoxy-N-(3-(4-methylphenethoxy)benzyl)-N-(pyridin-4-ylmethyl)benzamide], the EC50 in experiment [1] is 9.1 µM; in experiment [2], 12.7 µM.
Consider `COc1ccc(C(=O)N(Cc2ccncc2)Cc2cccc(OCC3CCOCC3)c2)cc1` [Compound 9, 4-Methoxy-N-(pyridin-4-ylmethyl)-N-(3-((tetrahydro-2H-pyran-4-yl)methoxy)benzyl)benzamide], for which, in experiment [1], the EC50 amounted to 17.7 µM and the “impact … compared with KMS11-GLUT1 cells” value was “greater impact on proliferation in KMS11-GFP cells”. The EC50 in experiment [2] amounted to 25.8 µM.
For the compound `COc1ccc(C(=O)N(Cc2ccncc2)Cc2cccc(OCc3ccc(F)cc3)c2)cc1` [Compound 16, N-(3-((4-fluorobenzyl)oxy)benzyl)-4-methoxy-N-(pyridin-4-ylmethyl)benzamide], the EC50 stood at 22.7 µM in experiment [1] and 28.6 µM in experiment [2].
